Measurements from article PMC5218480 (PLoS ONE, 2017).

Tested on: MV-4-11 cells
Test: Gene expression microarray analysis (Affymetrix PrimeView) and GSEA
Type: cell-based, human
Parameters: RFU PODN (11730768_x_at) / Fold change /veh PODN (11730768_x_at) / RFU LINC00158 (11744669_a_at) / Fold change /veh LINC00158 (11744669_a_at) / RFU DUSP10 (11751237_a_at) / Fold change /veh DUSP10 (11751237_a_at) / RFU ID3 (11757404_x_at) / Fold change /veh ID3 (11757404_x_at) / RFU PLEKHG5 (11737974_s_at) / Fold change /veh PLEKHG5 (11737974_s_at) / RFU LRRC4B (11730491_at) / Fold change /veh LRRC4B (11730491_at) / RFU GIMAP4 (11747438_a_at) / Fold change /veh GIMAP4 (11747438_a_at) / RFU KRT8 (11758183_x_at) / Fold change /veh KRT8 (11758183_x_at) / RFU CNN1 (11734310_a_at) / Fold change /veh CNN1 (11734310_a_at) / RFU VPS37D (11726825_at) / Fold change /veh VPS37D (11726825_at) / RFU C10orf10 (11716522_x_at) / Fold change /veh C10orf10 (11716522_x_at) / RFU KIR2DL2 /// KIR2DL4 /// KIR2DL5A /// KIR2DL5B /// KIR2DS1 /// KIR2DS2 /// KIR2DS3 /// KIR2DS4 /// KIR3DL3 /// KIR3DL3 /// KIR3DS1 (11738374_at) / Fold change /veh KIR2DL2 /// KIR2DL4 /// KIR2DL5A /// KIR2DL5B /// KIR2DS1 /// KIR2DS2 /// KIR2DS3 /// KIR2DS4 /// KIR3DL3 /// KIR3DL3 /// KIR3DS1 (11738374_at) / RFU C1QL1 (11718748_at) / Fold change /veh C1QL1 (11718748_at) / RFU TMPRSS4 (11747572_a_at) / Fold change /veh TMPRSS4 (11747572_a_at) / RFU HAMP (11756126_x_at) / Fold change /veh HAMP (11756126_x_at) / RFU RNFT2 (11725882_a_at) / Fold change /veh RNFT2 (11725882_a_at) / RFU NR4A2 (11747474_a_at) / Fold change /veh NR4A2 (11747474_a_at) / RFU ABCC12 (11746883_a_at) / Fold change /veh ABCC12 (11746883_a_at) / RFU TMEM136 (11760407_x_at) / Fold change /veh TMEM136 (11760407_x_at) / RFU CLDN22 /// WWC2 (11732394_at) / Fold change /veh CLDN22 /// WWC2 (11732394_at) / RFU HLA-DPB1 (11760878_x_at) / Fold change /veh HLA-DPB1 (11760878_x_at) / RFU SPINT1 (11716480_a_at) / Fold change /veh SPINT1 (11716480_a_at) / RFU GAP43 (11754022_s_at) / Fold change /veh GAP43 (11754022_s_at) / RFU A4GNT (11735810_at) / Fold change /veh A4GNT (11735810_at) / RFU PRB3 (11715151_x_at) / Fold change /veh PRB3 (11715151_x_at) / RFU TUBB4B (11761932_at) / Fold change /veh TUBB4B (11761932_at) / RFU CAPN14 (11732068_a_at) / Fold change /veh CAPN14 (11732068_a_at) / RFU TMCC2 (11721928_a_at) / Fold change /veh TMCC2 (11721928_a_at) / RFU IRGQ (11745062_a_at) / Fold change /veh IRGQ (11745062_a_at) / RFU FAM174B (11720279_a_at) / Fold change /veh FAM174B (11720279_a_at) / RFU TMPRSS4 (11748680_a_at) / Fold change /veh TMPRSS4 (11748680_a_at) / RFU FAM212B (11763350_a_at) / Fold change /veh FAM212B (11763350_a_at) / RFU PLEKHG5 (11743358_a_at) / Fold change /veh PLEKHG5 (11743358_a_at) / RFU ZSCAN30 (11745921_a_at) / Fold change /veh ZSCAN30 (11745921_a_at) / RFU CMKLR1 (11741424_a_at) / Fold change /veh CMKLR1 (11741424_a_at) / RFU LOC101060620 /// MAPK8IP1 (11723275_at) / Fold change /veh LOC101060620 /// MAPK8IP1 (11723275_at) / RFU SPTSSB (11747773_x_at) / Fold change /veh SPTSSB (11747773_x_at) / RFU PRSS12 (11739890_at) / Fold change /veh PRSS12 (11739890_at) / RFU BIN1 (11741810_x_at) / Fold change /veh BIN1 (11741810_x_at) / RFU WNT11 (11732464_a_at) / Fold change /veh WNT11 (11732464_a_at) / RFU C10orf10 (11716521_a_at) / Fold change /veh C10orf10 (11716521_a_at) / RFU C5orf56 (11738089_at) / Fold change /veh C5orf56 (11738089_at) / RFU CYB561 (11721691_x_at) / Fold change /veh CYB561 (11721691_x_at) / RFU ANKRD19P (11752326_a_at) / Fold change /veh ANKRD19P (11752326_a_at) / RFU OR2T12 /// OR2T33 /// OR2T8 (11738714_s_at) / Fold change /veh OR2T12 /// OR2T33 /// OR2T8 (11738714_s_at) / RFU VCAN (11748164_a_at) / Fold change /veh VCAN (11748164_a_at) / RFU JSRP1 (11732532_at) / Fold change /veh JSRP1 (11732532_at) / RFU KRTAP10-11 (11738290_x_at) / Fold change /veh KRTAP10-11 (11738290_x_at) / RFU MYO3A (11730013_a_at) / Fold change /veh MYO3A (11730013_a_at) / RFU EBF3 (11725865_a_at) / Fold change /veh EBF3 (11725865_a_at) / RFU CAMK2N1 (11719241_x_at) / Fold change /veh CAMK2N1 (11719241_x_at) / RFU C5orf56 (11738088_a_at) / Fold change /veh C5orf56 (11738088_a_at) / RFU OLFML3 (11715873_a_at) / Fold change /veh OLFML3 (11715873_a_at) / RFU LOC100653217 /// NTM (11731650_a_at) / Fold change /veh LOC100653217 /// NTM (11731650_a_at) / RFU MAPK11 (11762145_a_at) / Fold change /veh MAPK11 (11762145_a_at) / RFU FIZ1 (11724087_x_at) / Fold change /veh FIZ1 (11724087_x_at) / RFU OASL (11726364_x_at) / Fold change /veh OASL (11726364_x_at) / RFU SOX15 (11748057_x_at) / Fold change /veh SOX15 (11748057_x_at) / RFU CD79A (11719716_a_at) / Fold change /veh CD79A (11719716_a_at) / RFU HIST1H1D (11736915_at) / Fold change /veh HIST1H1D (11736915_at) / RFU CASKIN2 (11723855_a_at) / Fold change /veh CASKIN2 (11723855_a_at) / RFU LOC730098 (11760151_x_at) / Fold change /veh LOC730098 (11760151_x_at) / RFU OR4N2 (11742367_at) / Fold change /veh OR4N2 (11742367_at) / RFU PRRT2 (11749266_a_at) / Fold change /veh PRRT2 (11749266_a_at) / RFU SNX32 (11753110_a_at) / Fold change /veh SNX32 (11753110_a_at) / RFU CDHR5 (11726645_a_at) / Fold change /veh CDHR5 (11726645_a_at) / RFU RCAN1 (11760418_a_at) / Fold change /veh RCAN1 (11760418_a_at) / RFU FAM167A (11723789_a_at) / Fold change /veh FAM167A (11723789_a_at) / RFU FAM26E (11764081_at) / Fold change /veh FAM26E (11764081_at) / RFU ISYNA1 (11749810_s_at) / Fold change /veh ISYNA1 (11749810_s_at) / RFU ACY1 (11761880_at) / Fold change /veh ACY1 (11761880_at) / RFU 11764098_at / Fold change /veh 11764098_at / RFU SAMD14 (11745864_x_at) / Fold change /veh SAMD14 (11745864_x_at) / RFU NPB (11741838_a_at) / Fold change /veh NPB (11741838_a_at) / RFU TMPRSS6 (11731388_a_at) / Fold change /veh TMPRSS6 (11731388_a_at) / RFU KRTAP10-2 (11738614_at) / Fold change /veh KRTAP10-2 (11738614_at) / RFU ARHGAP8 /// PRR5-ARHGAP8 (11727945_x_at) / Fold change /veh ARHGAP8 /// PRR5-ARHGAP8 (11727945_x_at) / RFU KRTAP5-7 /// NADSYN1 (11734609_at) / Fold change /veh KRTAP5-7 /// NADSYN1 (11734609_at) / RFU RASL12 (11751679_a_at) / Fold change /veh RASL12 (11751679_a_at) / RFU CDKN2B (11736163_a_at) / Fold change /veh CDKN2B (11736163_a_at) / RFU PRF1 (11729649_at) / Fold change /veh PRF1 (11729649_at) / RFU, ZNF638 /// ZNF638-IT1 / Fold change vs veh, ZNF638 /// ZNF638-IT1 / RFU, PANK3 / Fold change vs veh, PANK3 / RFU, SH3YL1 / Fold change vs veh, SH3YL1 / RFU, ZEB2 / Fold change vs veh, ZEB2 / RFU, NRIP1 / Fold change vs veh, NRIP1 / RFU, PTTG1IP / Fold change vs veh, PTTG1IP / RFU, CAPN2 / Fold change vs veh, CAPN2 / RFU, MED14 / Fold change vs veh, MED14 / RFU, SNORA58 / Fold change vs veh, SNORA58 / RFU, C1orf63 / Fold change vs veh, C1orf63 / RFU, LRRFIP1 / Fold change vs veh, LRRFIP1 / RFU, NDUFAF7 / Fold change vs veh, NDUFAF7 / RFU, SLC12A2 / Fold change vs veh, SLC12A2 / RFU, IBTK / Fold change vs veh, IBTK / RFU, ESF1 / Fold change vs veh, ESF1 / Fold change vs veh, TMEM50B / RFU, TAOK1 / Fold change vs veh, TAOK1 / RFU, ACBD3 / Fold change vs veh, ACBD3 / RFU, TMA16 / Fold change vs veh, TMA16 / RFU, RWDD3 / Fold change vs veh, RWDD3 / RFU, BCAT1 / Fold change vs veh, BCAT1 / RFU, EDEM3 / Fold change vs veh, EDEM3 / RFU, TMEM33 / Fold change vs veh, TMEM33 / RFU, WDR75 / Fold change vs veh, WDR75 / RFU, AHCTF1 / Fold change vs veh, AHCTF1 / RFU, TFRC / Fold change vs veh, TFRC / RFU, ZDHHC17 / Fold change vs veh, ZDHHC17 / RFU, NOM1 / Fold change vs veh, NOM1 / RFU, ARL8B / Fold change vs veh, ARL8B / RFU, ZBTB11 / Fold change vs veh, ZBTB11 / RFU, TAMM41 / Fold change vs veh, TAMM41 / RFU, KIAA1704 /// LOC100996395 / Fold change vs veh, KIAA1704 /// LOC100996395 / RFU, ING1 / Fold change vs veh, ING1 / RFU, TRMT61B / Fold change vs veh, TRMT61B / RFU, FUBP3 / Fold change vs veh, FUBP3 / RFU, TP53 / Fold change vs veh, TP53 / RFU, TNKS2 / Fold change vs veh, TNKS2 / RFU, ZFP14 / Fold change vs veh, ZFP14 / RFU, ACTR2 / Fold change vs veh, ACTR2 / RFU, PPP3R1 / Fold change vs veh, PPP3R1 / RFU, PIK3R1 / Fold change vs veh, PIK3R1 / RFU, HNRNPA1 / Fold change vs veh, HNRNPA1 / RFU, RNF170 / Fold change vs veh, RNF170 / RFU, ZNF28 / Fold change vs veh, ZNF28 / RFU, RNGTT / Fold change vs veh, RNGTT / RFU, OGT / Fold change vs veh, OGT / RFU, BRD1 / Fold change vs veh, BRD1 / RFU, MARS / Fold change vs veh, MARS / RFU, ZNF655 / Fold change vs veh, ZNF655 / RFU, FAHD1 / Fold change vs veh, FAHD1 / RFU, BDP1 / Fold change vs veh, BDP1 / RFU, LRRCC1 / Fold change vs veh, LRRCC1 / RFU, ARID1A / Fold change vs veh, ARID1A / RFU, ZNF146 / Fold change vs veh, ZNF146 / RFU, ZNF330 / Fold change vs veh, ZNF330 / RFU, GPN3 / Fold change vs veh, GPN3 / RFU, C9orf123 / Fold change vs veh, C9orf123 / RFU, N4BP2L2 / Fold change vs veh, N4BP2L2 / RFU, ARFIP1 / Fold change vs veh, ARFIP1 / RFU, FAM179B / Fold change vs veh, FAM179B / RFU, BCL10 / Fold change vs veh, BCL10 / RFU, UHRF1BP1L / Fold change vs veh, UHRF1BP1L / RFU, BET1 / Fold change vs veh, BET1 / RFU, CNOT2 / Fold change vs veh, CNOT2 / RFU, ZNF268 / Fold change vs veh, ZNF268 / Fold change vs veh, ZNF507 / RFU, DGCR2 / Fold change vs veh, DGCR2 / RFU, WDSUB1 / Fold change vs veh, WDSUB1 / Fold change vs veh, HSP90B1 /// MIR3652 / RFU, ADSS / Fold change vs veh, ADSS / RFU, GK / Fold change vs veh, GK / RFU, ZNF148 / Fold change vs veh, ZNF148 / RFU, TAF9 / Fold change vs veh, TAF9 / RFU, SLC1A5 / Fold change vs veh, SLC1A5 / RFU, SLMO2 / Fold change vs veh, SLMO2 / RFU, ABCC4 / Fold change vs veh, ABCC4 / RFU, LOC101060439 /// RAP1B / Fold change vs veh, LOC101060439 /// RAP1B / RFU, RFX7 / Fold change vs veh, RFX7 / RFU, GTPBP10 / Fold change vs veh, GTPBP10 / RFU, CNEP1R1 / Fold change vs veh, CNEP1R1 / RFU, BIVM-ERCC5 /// ERCC5 / Fold change vs veh, BIVM-ERCC5 /// ERCC5 / RFU, ILF3 / Fold change vs veh, ILF3 / RFU 11762660_at / Fold change /veh 11762660_at / RFU VCAN (11757783_s_at) / Fold change /veh VCAN (11757783_s_at) / RFU DDX43 (11728927_at) / Fold change /veh DDX43 (11728927_at) / RFU KRT8 (11758188_x_at) / Fold change /veh KRT8 (11758188_x_at) / RFU NKD1 (11759106_at) / Fold change /veh NKD1 (11759106_at) / RFU SRD5A1 (11742802_a_at) / Fold change /veh SRD5A1 (11742802_a_at) / RFU TPSAB1 /// TPSB2 (11721975_s_at) / Fold change /veh TPSAB1 /// TPSB2 (11721975_s_at) / RFU GSTM3 (11746129_a_at) / Fold change /veh GSTM3 (11746129_a_at) / RFU IL23R (11737362_x_at) / Fold change /veh IL23R (11737362_x_at) / RFU TMEM51 (11727254_a_at) / Fold change /veh TMEM51 (11727254_a_at) / RFU PIWIL2 (11732686_x_at) / Fold change /veh PIWIL2 (11732686_x_at) / RFU ORM1 (11744905_x_at) / Fold change /veh ORM1 (11744905_x_at) / RFU CCDC152 (11743942_at) / Fold change /veh CCDC152 (11743942_at) / RFU ECM1 (11717891_a_at) / Fold change /veh ECM1 (11717891_a_at) / RFU IL23R (11748794_a_at) / Fold change /veh IL23R (11748794_a_at) / RFU TNFAIP8L3 (11732012_x_at) / Fold change /veh TNFAIP8L3 (11732012_x_at) / RFU MBOAT4 (11741988_at) / Fold change /veh MBOAT4 (11741988_at) / RFU 11764193_at / Fold change /veh 11764193_at / RFU TMEM53 (11763286_at) / Fold change /veh TMEM53 (11763286_at) / RFU MAGEB2 (11727129_at) / Fold change /veh MAGEB2 (11727129_at) / RFU TMEM200A (11744735_a_at) / Fold change /veh TMEM200A (11744735_a_at) / RFU CCDC152 (11751479_a_at) / Fold change /veh CCDC152 (11751479_a_at) / RFU FAM211A (11726209_a_at) / Fold change /veh FAM211A (11726209_a_at) / RFU RGS16 (11746705_a_at) / Fold change /veh RGS16 (11746705_a_at) / RFU VCAN (11755009_s_at) / Fold change /veh VCAN (11755009_s_at) / RFU RHOB (11743442_s_at) / Fold change /veh RHOB (11743442_s_at) / RFU RGS16 (11720943_a_at) / Fold change /veh RGS16 (11720943_a_at) / RFU RGS16 (11720944_at) / Fold change /veh RGS16 (11720944_at) / RFU, VPS4B / Fold change vs veh, VPS4B / RFU, CREB1 / Fold change vs veh, CREB1 / RFU, DNAJC13 / Fold change vs veh, DNAJC13 / RFU, GNAQ / Fold change vs veh, GNAQ / RFU, CDK5R1 / Fold change vs veh, CDK5R1 / RFU, ZRANB3 / Fold change vs veh, ZRANB3 / RFU, CUL4A / Fold change vs veh, CUL4A / RFU, CCNY / Fold change vs veh, CCNY / RFU, UFL1 / Fold change vs veh, UFL1 / RFU, COG3 / Fold change vs veh, COG3 / RFU, DIAPH2 / Fold change vs veh, DIAPH2 / RFU, SKA2 / Fold change vs veh, SKA2 / RFU, AFF3 / Fold change vs veh, AFF3 / RFU, LMF1 / Fold change vs veh, LMF1 / RFU, IPO11 / Fold change vs veh, IPO11 / RFU, DFFB / Fold change vs veh, DFFB / RFU, FOXP1 / Fold change vs veh, FOXP1 / RFU, CARD8 / Fold change vs veh, CARD8 / RFU, STRN3 / Fold change vs veh, STRN3 / RFU, ADK / Fold change vs veh, ADK / RFU, RASSF2 / Fold change vs veh, RASSF2 / RFU, WIPF1 / Fold change vs veh, WIPF1 / RFU, LARP1B / Fold change vs veh, LARP1B / RFU, RASA1 / Fold change vs veh, RASA1 / RFU, RB1 / Fold change vs veh, RB1 / RFU, PPFIA1 / Fold change vs veh, PPFIA1 / RFU, MAT2A / Fold change vs veh, MAT2A / RFU, CCT5 / Fold change vs veh, CCT5 / RFU, WDR92 / Fold change vs veh, WDR92 / RFU, CUX1 / Fold change vs veh, CUX1 / RFU, TTC7A / Fold change vs veh, TTC7A / RFU, TMEM135 / Fold change vs veh, TMEM135 / RFU, DEPTOR / Fold change vs veh, DEPTOR / RFU, CPM / Fold change vs veh, CPM / RFU, DNAJB6 / Fold change vs veh, DNAJB6 / RFU, CACNA2D3 / Fold change vs veh, CACNA2D3 / RFU, DTX4 / Fold change vs veh, DTX4 / RFU, TFCP2 / Fold change vs veh, TFCP2 / RFU, GMCL1 /// GMCL1P1 / Fold change vs veh, GMCL1 /// GMCL1P1 / RFU, AEBP2 / Fold change vs veh, AEBP2 / RFU, SNHG1 /// SNORD22 /// SNORD25 /// SNORD26 /// SNORD27 /// SNORD28 /// SNORD29 /// SNORD31 / Fold change vs veh, SNHG1 /// SNORD22 /// SNORD25 /// SNORD26 /// SNORD27 /// SNORD28 /// SNORD29 /// SNORD31 / Fold change (Aza/veh), C12orf56 (ProbeSet 11735607_a_at) / Fold change (ACY-1035/veh), C12orf56 (ProbeSet 11735607_a_at) / Fold change (Aza/veh), FGFR1OP (ProbeSet 11751329_s_at) / Fold change (ACY-1035/veh), FGFR1OP (ProbeSet 11751329_s_at) / Fold change (Aza/veh), VPS36 (ProbeSet 11739960_a_at) / Fold change (ACY-1035/veh), VPS36 (ProbeSet 11739960_a_at) / RFU SYPL1 (11715823_x_at) / Fold change /veh SYPL1 (11715823_x_at) / RFU IGFBP7 (11715501_s_at) / Fold change /veh IGFBP7 (11715501_s_at) / RFU REEP3 (11722064_at) / Fold change /veh REEP3 (11722064_at) / RFU IGLL1 (11728026_x_at) / Fold change /veh IGLL1 (11728026_x_at): dose or concentration left out as unconfirmed
Details: ProbeSet 11719817_x_at; LIST B

Compound: Nc1ccc(-c2cccs2)cc1NC(=O)c1ccc2c(c1)cc(C1CC1)n2CCN1CCOCC1 [ACY-1035]
- Fold change vs veh, BET1: 0.95
